# Assay results as given in patent US12486253B2, “Therapeutics for the degradation of mutant BRAF” (C4 THERAPEUTICS, INC., priority 2021, dated 2025).
# Legend:
# Type in all cases: cell-based
# [1] = system: A375 cells; assay: CellTiter-Glo cell growth inhibition, A375 cells; details: Homo sapiens, A-375, 72 hr, mean of at least n = 3
# Experimental: A375 cell viability was determined based on quantification of ATP using CellTiter-Glo® 2.0 luminescent Assay kit, which signals the presence of metabolically-active cells. Briefly, test compound was added to 384-well plates at a top concentration of 10 μM with 14 points, half log titration in duplicates. A375 cells were seeded into the 384-well plates in DMEM medium containing 10% FBS at a cell density of 250 cells per well. Cells treated in the absence of the test compound were the negative control, normalized to 100% viability, and cells treated in the absence of CellTiter-Glo® 2.0 were the positive control, normalized to 0% viability. A375 cells were incubated at 37° C. with 5% CO2 for 72 hr. CellTiter-Glo reagent was then added to the cells and Luminescence was acquired on EnVision™ Multilabel Reader (PerkinElmer, Santa Clara, CA, USA).
# [2] = target: ARAF (Homo sapiens, UniProt P10398); assay: Global proteomics profiling, A375 cells; set-up: endogenous in cells; host or cells: A375 (A7.2); details: 300 nM, 24 hours
# Sequence of ARAF (P10398 whole entry): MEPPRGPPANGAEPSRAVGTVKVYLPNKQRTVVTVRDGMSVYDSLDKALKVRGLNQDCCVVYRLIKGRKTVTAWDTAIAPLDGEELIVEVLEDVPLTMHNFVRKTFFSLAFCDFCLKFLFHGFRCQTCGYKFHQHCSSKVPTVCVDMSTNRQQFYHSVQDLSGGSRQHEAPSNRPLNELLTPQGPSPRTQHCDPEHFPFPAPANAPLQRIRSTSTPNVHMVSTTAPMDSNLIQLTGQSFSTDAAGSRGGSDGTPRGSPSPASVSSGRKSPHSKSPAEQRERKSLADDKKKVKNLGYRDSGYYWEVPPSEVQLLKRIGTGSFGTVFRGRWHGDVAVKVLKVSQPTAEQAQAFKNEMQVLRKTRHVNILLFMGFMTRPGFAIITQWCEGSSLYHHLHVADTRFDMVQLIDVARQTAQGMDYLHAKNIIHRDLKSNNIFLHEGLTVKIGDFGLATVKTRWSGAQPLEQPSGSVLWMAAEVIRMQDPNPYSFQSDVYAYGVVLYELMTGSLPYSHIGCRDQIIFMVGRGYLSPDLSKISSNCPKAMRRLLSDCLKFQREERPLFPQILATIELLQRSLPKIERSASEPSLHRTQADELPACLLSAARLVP
# Experimental: (§1) Each cell line was treated in duplicate with either DMSO or Compound 157 (final concentration 300 nM) for 24 hours in an incubator at 37° C. with 5% CO2. After the 24-hour incubation, cells were harvested, washed twice with PBS, and snap frozen in liquid nitrogen. Samples were re-suspended in lysis buffer [8 M urea, 50 mM HEPES (pH 8.5), 50 mM NaCl, 1× protease inhibitor cocktail] and lysed by sonication at 4° C. with 85% amplitude in a pulse setting with 30 seconds on and 30 seconds off for a total sonication time of 5 minutes. Lysates were centrifuged at maximum speed for 10 minutes at 4° C. and the supernatant collected, reduced for 1 hour at room temperature with 5 mM TCEP, and the cysteine residues were then alkylated with 15 mM iodoacetamide (room temperature, in dark, 30 minutes). Protein content was extracted by methanol-chloroform precipitation and subsequent ice-cold acetone washes. Protein pellets were resuspended in 8 M urea, 50 mM HEPES (pH 8.5) buffer and protein concentrations were measured by BCA assay. […]
# (§2) For peptide tandem mass tag (TMT) labeling, 100 μg of peptides per sample was prepared at […] concentration in 200 mM HEPES (pH 8.5), 30% acetonitrile (ACN) and each the specific TMT reagent. […] TMT reporter ion intensities were quantified by extracting the signal-to-noise ratio for each. […]
# [3] = system: A375 cells; assay: A375 cell growth (GI50); details: Homo sapiens, A-375, at 96 hr
# [4] = system: H1666 cells endogenously expressing the class III BRAF mutation G466V; assay: Cellular growth over time in H1666 cells
# [5] = target: BRAF V600E (Homo sapiens, UniProt P15056, V600E); assay: Global proteomics profiling, A375 cells; set-up: endogenous in cells; host or cells: A375; details: 300 nM, 24 hours, compared to 300 nM dabrafenib treatment
# Sequence of BRAF V600E (P15056 whole entry V600E): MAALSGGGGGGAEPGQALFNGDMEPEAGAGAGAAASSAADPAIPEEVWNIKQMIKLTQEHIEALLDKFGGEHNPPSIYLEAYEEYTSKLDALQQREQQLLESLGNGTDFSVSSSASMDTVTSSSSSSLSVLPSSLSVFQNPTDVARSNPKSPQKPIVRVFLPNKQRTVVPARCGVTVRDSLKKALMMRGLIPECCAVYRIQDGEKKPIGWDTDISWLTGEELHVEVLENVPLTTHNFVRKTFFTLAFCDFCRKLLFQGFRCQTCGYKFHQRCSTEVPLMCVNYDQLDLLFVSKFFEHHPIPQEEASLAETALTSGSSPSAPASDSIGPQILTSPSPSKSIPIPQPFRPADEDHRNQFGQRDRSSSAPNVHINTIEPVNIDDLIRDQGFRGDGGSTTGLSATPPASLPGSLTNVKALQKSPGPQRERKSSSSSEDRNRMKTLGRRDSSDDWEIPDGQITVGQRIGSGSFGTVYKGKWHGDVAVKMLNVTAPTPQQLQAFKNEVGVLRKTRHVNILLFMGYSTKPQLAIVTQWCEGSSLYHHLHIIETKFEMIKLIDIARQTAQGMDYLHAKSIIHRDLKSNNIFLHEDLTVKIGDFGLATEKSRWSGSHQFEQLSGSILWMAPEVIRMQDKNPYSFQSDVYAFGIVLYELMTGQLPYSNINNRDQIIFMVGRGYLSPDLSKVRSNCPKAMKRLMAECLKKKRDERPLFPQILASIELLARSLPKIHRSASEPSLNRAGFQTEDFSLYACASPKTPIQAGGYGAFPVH
# Experimental: as §1, §2
smiles,measurement,setting,value
"CCN(C)S(=O)(=O)Nc1ccc(F)c(Oc2ccc3ncn([C@H]4COC5(CCN(C(=O)CC6(O)CCN(c7cc8c(cc7F)c(N7CCC(=O)NC7=O)nn8C)CC6)CC5)C4)c(=O)c3c2)c1C#N [Compound 157, (3R)-3-[6-[2-cyano-3-[[ethyl(methyl)sulfamoyl]amino]-6-fluorophenoxy]-4-oxoquinazolin-3-yl]-8-[2-[1-[3-(2,4-dioxo-1,3-diazinan-1-yl)-5-fluoro-1-methylindazol-6-yl]-4-hydroxypiperidin-4-yl]acetyl]-1-oxa-8-azaspiro[4.5]decane]",GI50,[1],9.3 nM
same,ARAF protein level change,[2],remain largely unchanged
same,GI50,[3],94 nM
same,cell growth inhibition,[4]; G466V,effective
same,confluency,[4]; over the course of 7 days,≤ 30%
same,"cell growth, in combination with trametinib",[4]; with 1 nM trametinib,failed to expand
same,BRAF^V600E protein remaining,[5],27%
